Experimental data published in the kinase profiling compilation of Christmann-Franck et al. (2016).
Where “and” joins values, the source holds several entries; their conditions need not be identical. Equal entries are not always repeated.

What was measured:
Assay in all cases: KINOMEscan competition binding
Details in all cases: compound 10.0 µM
[1] = biological target: ABL2 (human) (UniProt P42684)
[2] = biological target: ACVR2A (human) (UniProt P27037)
[3] = biological target: ALK (human) (UniProt Q9UM73)
[4] = biological target: CAMKK1 (human) (UniProt Q8N5S9)
[5] = biological target: CDK17 (human) (UniProt Q00537)
[6] = biological target: CDK18 (human) (UniProt Q07002)
[7] = biological target: CLK3 (human) (UniProt P49761)
[8] = biological target: CSF1R (human) (UniProt P07333)
[9] = system: EGFR (human), P00533 [L858R]
[10] = biological target: EPHA2 (human) (UniProt P29317)
[11] = biological target: EPHA6 (human) (UniProt Q9UF33)
[12] = biological target: ERBB2 (human) (UniProt P04626)
[13] = biological target: ERN1 (human) (UniProt O75460)
[14] = biological target: FES (human) (UniProt P07332)
[15] = biological target: LRRK2 (human) (UniProt Q5S007)
[16] = biological target: MAP2K1 (human) (UniProt Q02750)
[17] = biological target: MAP2K4 (human) (UniProt P45985)
[18] = biological target: MAP3K11 (human) (UniProt Q16584)
[19] = biological target: MAP3K3 (human) (UniProt Q99759)
[20] = biological target: MAP3K6 (human) (UniProt O95382)
[21] = biological target: MELK (human) (UniProt Q14680)
[22] = biological target: MST4 (human) (UniProt Q9P289)
[23] = biological target: MYLK3 (human) (UniProt Q32MK0)
[24] = biological target: NEK6 (human) (UniProt Q9HC98)
[25] = biological target: NTRK1 (human) (UniProt P04629)
[26] = biological target: NTRK2 (human) (UniProt Q16620)
[27] = biological target: NUAK1 (human) (UniProt O60285)
[28] = biological target: NUAK2 (human) (UniProt Q9H093)
[29] = biological target: PKMYT1 (human) (UniProt Q99640)
[30] = biological target: PKN3 (M.tuberculosis) (UniProt Q6P5Z2)
[31] = biological target: PRKCI (human) (UniProt P41743)
[32] = biological target: PTK6 (human) (UniProt Q13882)
[33] = biological target: RPS6KA1 KD1 (human) (UniProt Q15418)
[34] = biological target: RPS6KA4 KD1 (human) (UniProt O75676)
[35] = biological target: STK10 (human) (UniProt O94804)
[36] = biological target: TGFBR2 (human) (UniProt P37173)
[37] = biological target: TNIK (human) (UniProt Q9UKE5)
[38] = biological target: TYK2 JH1 catalytic (human) (UniProt P29597)
[39] = biological target: WEE1 (human) (UniProt P30291)
[40] = biological target: YES1 (human) (UniProt P07947)

PKN3 (M.tuberculosis), sequence (Q6P5Z2 whole entry, looked up): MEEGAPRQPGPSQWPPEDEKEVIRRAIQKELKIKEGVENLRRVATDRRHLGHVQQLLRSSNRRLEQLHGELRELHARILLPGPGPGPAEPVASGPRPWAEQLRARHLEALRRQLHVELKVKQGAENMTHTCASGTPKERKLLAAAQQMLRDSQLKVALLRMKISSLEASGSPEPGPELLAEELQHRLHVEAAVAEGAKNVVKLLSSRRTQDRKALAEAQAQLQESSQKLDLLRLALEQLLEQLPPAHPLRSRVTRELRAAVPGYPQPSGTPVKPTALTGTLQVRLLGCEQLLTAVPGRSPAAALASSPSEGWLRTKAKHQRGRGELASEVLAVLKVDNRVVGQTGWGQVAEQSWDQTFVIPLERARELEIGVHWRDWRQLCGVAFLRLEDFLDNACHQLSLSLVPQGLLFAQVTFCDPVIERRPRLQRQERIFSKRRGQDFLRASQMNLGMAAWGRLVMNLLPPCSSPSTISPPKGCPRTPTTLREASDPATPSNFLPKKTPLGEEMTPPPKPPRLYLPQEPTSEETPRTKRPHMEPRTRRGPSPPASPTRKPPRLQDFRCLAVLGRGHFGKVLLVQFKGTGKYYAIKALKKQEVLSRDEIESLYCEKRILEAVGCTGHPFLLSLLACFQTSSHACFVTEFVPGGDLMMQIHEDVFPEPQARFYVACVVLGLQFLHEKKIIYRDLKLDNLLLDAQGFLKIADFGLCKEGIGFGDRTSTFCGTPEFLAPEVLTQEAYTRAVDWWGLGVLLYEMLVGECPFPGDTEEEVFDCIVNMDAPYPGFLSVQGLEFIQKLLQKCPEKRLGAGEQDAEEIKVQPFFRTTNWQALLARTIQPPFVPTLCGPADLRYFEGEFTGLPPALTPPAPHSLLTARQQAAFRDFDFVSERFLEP
RPS6KA1 KD1 (human), sequence (Q15418 whole entry, looked up): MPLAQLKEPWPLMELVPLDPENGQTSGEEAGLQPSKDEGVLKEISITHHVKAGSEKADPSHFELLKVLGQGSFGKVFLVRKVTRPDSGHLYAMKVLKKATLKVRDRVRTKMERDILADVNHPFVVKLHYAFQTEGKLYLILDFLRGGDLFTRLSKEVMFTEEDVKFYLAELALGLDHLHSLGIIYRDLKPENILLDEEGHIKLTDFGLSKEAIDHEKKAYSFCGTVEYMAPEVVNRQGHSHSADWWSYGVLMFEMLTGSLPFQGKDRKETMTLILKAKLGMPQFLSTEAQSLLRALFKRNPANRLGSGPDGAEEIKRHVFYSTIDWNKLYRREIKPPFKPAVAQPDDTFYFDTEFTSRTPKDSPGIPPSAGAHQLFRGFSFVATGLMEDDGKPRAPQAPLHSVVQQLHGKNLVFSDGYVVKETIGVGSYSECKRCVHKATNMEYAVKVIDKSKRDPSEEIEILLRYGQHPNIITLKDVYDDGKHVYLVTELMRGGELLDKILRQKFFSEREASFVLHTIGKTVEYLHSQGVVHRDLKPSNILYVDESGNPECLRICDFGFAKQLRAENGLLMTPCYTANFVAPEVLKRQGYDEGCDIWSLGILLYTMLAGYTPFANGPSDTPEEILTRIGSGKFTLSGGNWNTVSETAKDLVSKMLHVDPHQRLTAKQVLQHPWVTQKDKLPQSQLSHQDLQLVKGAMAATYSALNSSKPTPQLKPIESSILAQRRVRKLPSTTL
CDK18 (human), sequence (Q07002 whole entry, looked up): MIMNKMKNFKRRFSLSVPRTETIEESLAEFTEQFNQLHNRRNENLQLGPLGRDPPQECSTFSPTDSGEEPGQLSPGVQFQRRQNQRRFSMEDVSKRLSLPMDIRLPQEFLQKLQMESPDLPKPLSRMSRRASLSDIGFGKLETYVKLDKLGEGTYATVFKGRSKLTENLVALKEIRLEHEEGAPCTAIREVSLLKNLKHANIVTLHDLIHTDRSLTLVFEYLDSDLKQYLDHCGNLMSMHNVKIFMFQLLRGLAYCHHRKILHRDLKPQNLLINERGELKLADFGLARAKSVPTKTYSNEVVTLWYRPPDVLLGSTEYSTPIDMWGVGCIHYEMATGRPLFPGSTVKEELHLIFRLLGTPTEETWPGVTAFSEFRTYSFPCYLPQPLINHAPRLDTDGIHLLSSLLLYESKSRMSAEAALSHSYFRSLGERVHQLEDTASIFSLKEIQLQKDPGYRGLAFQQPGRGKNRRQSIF
EPHA6 (human), sequence (Q9UF33 whole entry, looked up): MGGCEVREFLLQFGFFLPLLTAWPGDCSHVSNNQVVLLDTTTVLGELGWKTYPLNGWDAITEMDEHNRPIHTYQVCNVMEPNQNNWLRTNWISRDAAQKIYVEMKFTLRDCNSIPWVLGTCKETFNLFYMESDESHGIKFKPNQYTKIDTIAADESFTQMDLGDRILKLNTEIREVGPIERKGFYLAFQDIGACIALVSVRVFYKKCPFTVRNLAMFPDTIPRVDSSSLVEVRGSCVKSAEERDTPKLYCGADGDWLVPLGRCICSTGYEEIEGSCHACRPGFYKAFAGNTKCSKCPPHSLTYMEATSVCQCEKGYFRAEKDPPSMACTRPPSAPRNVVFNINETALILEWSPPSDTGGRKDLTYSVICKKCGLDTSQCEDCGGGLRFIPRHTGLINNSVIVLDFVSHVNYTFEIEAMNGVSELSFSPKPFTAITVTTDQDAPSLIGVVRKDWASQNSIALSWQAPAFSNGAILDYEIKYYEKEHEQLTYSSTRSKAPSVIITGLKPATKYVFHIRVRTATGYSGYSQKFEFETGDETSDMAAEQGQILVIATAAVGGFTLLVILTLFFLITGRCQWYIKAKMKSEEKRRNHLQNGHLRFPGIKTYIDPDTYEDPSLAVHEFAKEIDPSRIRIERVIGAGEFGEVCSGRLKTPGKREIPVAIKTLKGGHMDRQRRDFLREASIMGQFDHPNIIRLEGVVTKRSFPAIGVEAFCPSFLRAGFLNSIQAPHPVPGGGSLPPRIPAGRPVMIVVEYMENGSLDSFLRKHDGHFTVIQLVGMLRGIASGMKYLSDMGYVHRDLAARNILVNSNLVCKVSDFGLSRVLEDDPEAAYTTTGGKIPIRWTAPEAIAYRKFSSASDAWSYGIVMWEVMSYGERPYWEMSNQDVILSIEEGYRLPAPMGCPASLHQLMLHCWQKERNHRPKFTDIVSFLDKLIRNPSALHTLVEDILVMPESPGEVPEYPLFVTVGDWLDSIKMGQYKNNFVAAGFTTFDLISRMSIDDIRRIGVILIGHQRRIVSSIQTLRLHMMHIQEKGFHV
CDK17 (human), sequence (Q00537 whole entry, looked up): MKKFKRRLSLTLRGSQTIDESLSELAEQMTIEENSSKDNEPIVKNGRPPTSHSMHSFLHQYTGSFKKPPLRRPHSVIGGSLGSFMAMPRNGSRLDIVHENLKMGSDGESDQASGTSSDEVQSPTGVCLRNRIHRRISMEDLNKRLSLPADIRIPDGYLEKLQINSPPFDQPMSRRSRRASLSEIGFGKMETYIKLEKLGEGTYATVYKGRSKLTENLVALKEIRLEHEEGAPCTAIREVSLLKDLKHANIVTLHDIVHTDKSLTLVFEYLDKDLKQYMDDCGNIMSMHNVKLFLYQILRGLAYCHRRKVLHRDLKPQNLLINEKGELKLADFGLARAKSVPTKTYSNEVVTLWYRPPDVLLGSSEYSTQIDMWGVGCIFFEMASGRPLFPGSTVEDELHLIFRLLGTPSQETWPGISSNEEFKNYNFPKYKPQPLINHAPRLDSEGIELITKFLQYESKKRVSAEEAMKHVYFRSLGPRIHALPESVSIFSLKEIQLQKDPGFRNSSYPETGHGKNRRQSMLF
MST4 (human), sequence (Q9P289 whole entry, looked up): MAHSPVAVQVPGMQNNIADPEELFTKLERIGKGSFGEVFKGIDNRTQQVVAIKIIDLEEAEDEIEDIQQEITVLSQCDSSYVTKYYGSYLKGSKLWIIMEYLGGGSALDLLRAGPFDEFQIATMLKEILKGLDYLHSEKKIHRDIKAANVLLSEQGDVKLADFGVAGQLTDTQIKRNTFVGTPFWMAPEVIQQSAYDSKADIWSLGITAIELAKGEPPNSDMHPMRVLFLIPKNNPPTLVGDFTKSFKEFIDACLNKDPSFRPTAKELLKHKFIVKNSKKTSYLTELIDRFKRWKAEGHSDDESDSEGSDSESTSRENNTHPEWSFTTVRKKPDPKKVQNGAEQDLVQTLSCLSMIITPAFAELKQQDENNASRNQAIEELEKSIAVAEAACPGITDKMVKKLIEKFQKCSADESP
CLK3 (human), sequence (P49761 whole entry, looked up): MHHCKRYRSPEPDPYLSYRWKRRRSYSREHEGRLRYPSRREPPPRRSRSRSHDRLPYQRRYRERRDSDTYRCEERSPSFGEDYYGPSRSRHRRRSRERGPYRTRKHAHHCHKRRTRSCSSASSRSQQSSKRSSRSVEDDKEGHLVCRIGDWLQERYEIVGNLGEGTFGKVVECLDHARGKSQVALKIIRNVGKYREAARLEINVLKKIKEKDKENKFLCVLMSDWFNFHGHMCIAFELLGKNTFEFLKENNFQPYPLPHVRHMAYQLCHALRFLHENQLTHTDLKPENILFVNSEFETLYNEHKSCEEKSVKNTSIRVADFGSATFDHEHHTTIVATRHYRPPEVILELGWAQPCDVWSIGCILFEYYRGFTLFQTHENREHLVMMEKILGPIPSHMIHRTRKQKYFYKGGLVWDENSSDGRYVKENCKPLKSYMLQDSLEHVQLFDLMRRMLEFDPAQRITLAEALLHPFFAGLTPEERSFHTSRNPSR
MAP2K4 (human), sequence (P45985 whole entry, looked up): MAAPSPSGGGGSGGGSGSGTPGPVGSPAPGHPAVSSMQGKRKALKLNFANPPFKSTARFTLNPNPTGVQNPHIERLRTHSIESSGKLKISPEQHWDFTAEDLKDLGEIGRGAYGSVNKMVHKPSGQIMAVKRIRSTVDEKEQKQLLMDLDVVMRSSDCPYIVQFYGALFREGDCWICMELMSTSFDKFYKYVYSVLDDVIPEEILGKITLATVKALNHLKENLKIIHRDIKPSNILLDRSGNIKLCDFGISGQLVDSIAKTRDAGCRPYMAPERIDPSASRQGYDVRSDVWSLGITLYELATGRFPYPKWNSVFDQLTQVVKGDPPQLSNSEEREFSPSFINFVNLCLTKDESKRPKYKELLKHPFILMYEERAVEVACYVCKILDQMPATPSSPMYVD

Row | Compound | kinase still bound, per cent of control [1] | kinase still bound, per cent of control [2] | kinase still bound, per cent of control [3] | kinase still bound, per cent of control [4] | kinase still bound, per cent of control [5] | kinase still bound, per cent of control [6] | kinase still bound, per cent of control [7] | kinase still bound, per cent of control [8] | kinase still bound, per cent of control [9] | kinase still bound, per cent of control [10] | kinase still bound, per cent of control [11] | kinase still bound, per cent of control [12] | kinase still bound, per cent of control [13] | kinase still bound, per cent of control [14] | kinase still bound, per cent of control [15] | kinase still bound, per cent of control [16] | kinase still bound, per cent of control [17] | kinase still bound, per cent of control [18] | kinase still bound, per cent of control [19] | kinase still bound, per cent of control [20] | also measured
1 | O=c1[nH]c2ccccc2n1C1CCN(Cc2ccc(-c3nc4cc5[nH]cnc5cc4nc3-c3ccccc3)cc2)CC1 | 100% | 88% | 37% | 100% | 100% | 97% | 100% | 99% and 76% | 53% | 100% | 98% | 86% | 66% | 100% | 100% | 83% | 94% | 100% | 83% | 100% | kinase still bound, per cent of control [21]: 77%; kinase still bound, per cent of control [22]: 100%; kinase still bound, per cent of control [23]: 100%; kinase still bound, per cent of control [24]: 100%; kinase still bound, per cent of control [25]: 100%; kinase still bound, per cent of control [26]: 85%; kinase still bound, per cent of control [27]: 100%; kinase still bound, per cent of control [28]: 67%; kinase still bound, per cent of control [29]: 94%; kinase still bound, per cent of control [30]: 78%; kinase still bound, per cent of control [31]: 79%; kinase still bound, per cent of control [32]: 100%; kinase still bound, per cent of control [33]: 91%; kinase still bound, per cent of control [34]: 100%; kinase still bound, per cent of control [35]: 65%; kinase still bound, per cent of control [36]: 100%; kinase still bound, per cent of control [37]: 97%; kinase still bound, per cent of control [38]: 66%; kinase still bound, per cent of control [39]: 99%; kinase still bound, per cent of control [40]: 100%
2 | COc1cc2ncnc(Nc3cccc(Cl)c3)c2cc1OC | 34% | 92% | 25% | 74% | 79% | 79% | 100% | 72% and 91% | 0.05% | 62% | 11% | 0.3% | 41% | 96% | 79% | 25% | 85% | 100% | 6.6% | 43% | kinase still bound, per cent of control [21]: 74%; kinase still bound, per cent of control [22]: 84%; kinase still bound, per cent of control [23]: 76%; kinase still bound, per cent of control [24]: 100%; kinase still bound, per cent of control [25]: 88%; kinase still bound, per cent of control [26]: 80%; kinase still bound, per cent of control [27]: 98%; kinase still bound, per cent of control [28]: 49%; kinase still bound, per cent of control [29]: 78%; kinase still bound, per cent of control [30]: 100%; kinase still bound, per cent of control [31]: 80%; kinase still bound, per cent of control [32]: 58%; kinase still bound, per cent of control [33]: 93%; kinase still bound, per cent of control [34]: 100%; kinase still bound, per cent of control [35]: 1.5%; kinase still bound, per cent of control [36]: 91%; kinase still bound, per cent of control [37]: 26%; kinase still bound, per cent of control [38]: 52%; kinase still bound, per cent of control [39]: 93%; kinase still bound, per cent of control [40]: 38%
3 | C=CC(=O)Nc1ccc(C(=O)c2sc(Nc3ccc(N4CCN(C)CC4)cc3OC)nc2N)cc1 | 100% | 100% | 8.4% | 3.3% | 78% | 100% | 8.9% | 58% | 39% | 96% | 88% | 77% | 7.6% | 52% | 5.2% | 100% | 24% | 100% | 65% | 84% | kinase still bound, per cent of control [21]: 87%; kinase still bound, per cent of control [22]: 99%; kinase still bound, per cent of control [23]: 100%; kinase still bound, per cent of control [24]: 73%; kinase still bound, per cent of control [25]: 78%; kinase still bound, per cent of control [26]: 100%; kinase still bound, per cent of control [27]: 100%; kinase still bound, per cent of control [28]: 49%; kinase still bound, per cent of control [29]: 96%; kinase still bound, per cent of control [30]: 100%; kinase still bound, per cent of control [31]: 26%; kinase still bound, per cent of control [32]: 80%; kinase still bound, per cent of control [33]: 24%; kinase still bound, per cent of control [34]: 95%; kinase still bound, per cent of control [35]: 100%; kinase still bound, per cent of control [36]: 100%; kinase still bound, per cent of control [37]: 6%; kinase still bound, per cent of control [38]: 100%; kinase still bound, per cent of control [39]: 100%; kinase still bound, per cent of control [40]: 86%
